From patent publication US20230355498A1, “HAIR GROWTH AGENT” (ADJUVANT HOLDINGS CO., LTD., priority 2020, published 2023)

Key:
[1] = tested on: skin samples derived from mouse dorsal body hair skin (C57BL/6N) grafted onto Balb/c nu/nu mice; test: Hair growth activity: hair shaft length follow-up at transplanted skin samples after topical application; assay type: in vivo
Description: C57BL/6N mice (male) and Balb/c nu/nu mice (female) were purchased from Japan SLC, Inc.(Japan) and bred, and were thereafter made available for the following testing. Note that the testing and breeding of animals complied with pertinent laws, regulations, ordinances, and guidelines, and was performed with the approval of the Experimental Ethics Review Board of the Institute of Physical and Chemical Research.
The following reagents were respectively prepared. • Placebo: 60% aqueous ethanol solution • Working Example 1: 0.05% solution of palmitoyl • dipeptide-5 diaminohydroxybutyrate (3) Preparation of Skin Samples Derived from Mouse Dorsal Body Hair Skin
To collect dorsal body hair skin in the form of anagen stage VI skin 12 to 14 days following depilation, C57BL/6N mice of age 7 to 8 weeks were depilated at locations where dorsal body hair skin was intended to be collected, and were bred for 12 to 14 days. The depilated C57BL/6N mice were thereafter euthanized by cervical dislocation, following which a suitable amount of dorsal body hair skin was collected from the locations at which dorsal body hair skin was intended to be collected.
The collected skin was immersed in DMEM culture medium (hereinafter “DMEM 10”) which contained 10 mM HEPES, 10% fetal bovine serum, and 1% penicillin/streptomycin solution. The collected dorsal body hair skin was grasped with bent-nose curved tweezers and was treated by immersion for 10 seconds in a sterilizing solution. Sterilization treatment was performed by carrying out treatment with 7% povidone iodine solution two times, treatment with PBS (-) three times, and treatment with DMEM 10 two times, in this order, with fresh solutions respectively being used each time. Following sterilization treatment, these were immersed in clean DMEM 10.
Following sterilization treatment, the dorsal body hair skin was cut into pieces and formed into blocks. The transparent connective tissue which adhered to the cutaneous muscle layer of the skin was excised therefrom using curved scissors, and hair groups were cut into rectangular strips in parallel fashion with respect to the direction of the wave of the hair. At this time, these were cut into blocks such that there were 6 rows of hair follicles along the long axis, adjustment having been carried out so that there were 5 rows of hair follicles along the short axis.
The skin samples derived from dorsal body hair skin that were prepared in accordance with the foregoing were grafted onto Balb/c nu/nu mice of age 4 to 6 weeks.
More specifically, mice were anesthetized in the usual way using isoflurane gas. The dorsal area of the mice was then disinfected using 7% povidone iodine solution, following which the mice were made to assume a naturally recumbent posture. In addition, a Mani ophthalmic knife (Mani, Inc.; Japan) was used to pierce the skin at the dorsal area of the mice, the grafts which were formed extending from the epidermal layer of the skin to the subdermal layer. The skin samples derived from dorsal body hair skin were inserted into the grafts formed thereat in such fashion as to cause the hair groups to be directed toward the body surface side of the grafts. Skin sample transplanted depth was adjusted so as to cause the top portion of the hair group to be in a state such that it was exposed at the top portion of the graft. To protect the grafts, Nurseban (registered trademark) (Sunplanet Co., Ltd.; Japan) and surgical tape (3M Japan Limited; Japan) were then used as protective tape to cover the grafts at which the skin samples derived from dorsal body hair skin had been transplanted. The protective tape was removed 5 to 7 days following transplantation, and survival of the transplanted skin samples derived from dorsal body hair skin was determined by visual inspection or digital microscopy (Keyence Corporation: Japan), after which follow-up observation was carried out.
For the first hair cycle, 60% aqueous ethanol solution was applied thereto as placebo. […]

[2] = tested on: hair shafts from skin samples transplanted in Balb/c nu/nu mice; test: Hair-diameter-increasing activity: hair shaft diameter of zigzag hairs that completed the second cycle; assay type: in vivo, mouse
Description: Measurement of increase in hair diameter was carried out using hair shafts that had completed the second cycle at the foregoing Exemplary Test 1. Of the hair shafts that were collected, three zigzag hairs were used for measurement of increase in hair diameter. Three locations were selected in regions where diameter was large in the central portions thereof using a square 100 μm on a side. For each of the selected regions, five different locations were further selected, and hair shaft diameter of the zigzag hairs thereat was measured to evaluate the degree to which increase in hair diameter had occurred.

[3] = tested on: human dermal papilla cells; test: Dermal papilla cell growth promotion (Cell Count Reagent SF, absorbance 450 nm); assay type: cell-based; details: FIG. 3
Description: Human dermal papilla cells (Catalog No. CA602t05a; derived from person; Toyobo Co., Ltd. (Japan)) were purchased, testing and evaluation being carried out with maintenance and culture of cells being performed as described in the protocol.
As drugs for testing, drug solutions consisting of culture medium for human dermal papilla cells containing palmitoyl dipeptide-5 diaminohydroxybutyrate in the following respective concentrations (final concentrations) were prepared, and these were used. • Working Example 1: 11.54709375 μM • Working Example 2: 23.0941875 μM • Working Example 3: 46.188375 μM • Working Example 4: 92.37675 μM • Working Example 5: 184.7535 μM • Working Example 6: 369.507 μM
A 96-well plate was seeded with human dermal papilla cells so as to obtain 1×10^3 thereof per well. […] After this had been added thereto, absorbance (measurement wavelength 450 nm; reference wavelength 620 nm) of the culture supernatant was measured. Based on these values, the cell growth rates at the respective wells were calculated, at which time the cell growth rate of the control group at which nothing had been added was taken to be 100%.

FGF-7 gene = FGF-7 gene expression in human dermal papilla cells (real-time PCR, GAPDH internal standard); assay type: cell-based; details: 24 hours, FIG. 4
Description: Testing and evaluation were carried out with maintenance and culture of human dermal papilla cells being performed in the same manner as at Exemplary Test 3, above.
As drugs for testing, drug solutions of the following respective concentrations (final concentrations) were prepared and used. • Comparative Example 1: 100 μM adenosine • Working Example 1: 1 μM palmitoyl dipeptide-5 diaminohydroxybutyrate • Working Example 2: 10 μM palmitoyl dipeptide-5 diaminohydroxybutyrate • Working Example 3: 300 μM palmitoyl dipeptide-5 diaminohydroxybutyrate
A 24-well plate was seeded with human dermal papilla cells so as to obtain 6×10^3 thereof per well. […]
Following culture, total RNA was extracted from the respective wells and was recovered, and this was reverse-transcribed into cDNA. […] The GAPDH gene was used as an internal standard, the amount of FGF-7 gene expression being calculated relative to the negative control group.
A FastGene RNA Basic Kit (Catalog No. FG-80250; Nippon Genetics Co., Ltd. (Japan)) was used to recover total RNA from cells. […] Concentration of the recovered RNA was measured using a NanoDrop Lite (Catalog No. ND-LITE; Thermo Fisher Scientific K.K.), and this was stored at −80° C. until the following cDNA creation procedure.
A FastGene scriptase II cDNA synthesis 5× Ready Mix (Catalog No. NE-LS641; Nippon Genetics Co., Ltd. (Japan)) was used to synthesize cDNA. […]

[4] = 0.05% solution, second hair cycle vs placebo applied in first hair cycle
[5] = solution containing 0.05%, applied at transplanted skin samples in mice

Substance: palmitoyl dipeptide-5 diaminohydroxybutyrate
- Hair shaft elongation rate (mm/day) ([1]; 0.05% solution applied topically, second hair cycle, placebo (first hair cycle) 0.38 ± 0.06): 0.39 ± 0.06 mm/day
- Maximum hair shaft length (mm) ([1]; 0.05% solution applied topically, second hair cycle, placebo (first hair cycle) 4.9 ± 0.4, * p<0.05): 5.2 ± 0.2 * mm
- Hair shaft elongation rate: Percent change relative to reference data [1, 4]: 100.63%
- Maximum hair shaft length: Percent change relative to reference data [1, 4]: 105.19%
- Hair growth activity (in words) ([1]; solution containing 0.05%): exhibit hair growth activity
- Hair shaft elongation rate as compared with reference data (in words) [1, 5]: improvement in hair shaft elongation rate
- Maximum hair shaft length as compared with reference data (in words) [1, 5]: significant improvement
- Hair diameter as compared with 60% aqueous ethanol control (in words) ([2]; hair shafts which had completed the second cycle): clear increase in hair diameter
- Hair shaft diameter: Percent increase (%) ([2]; second hair cycle vs placebo applied in first hair cycle): 124%
- Hair shaft diameter (μm) ([2]; zigzag hairs, second hair cycle, 0.05% solution, placebo (first hair cycle) 18.5 ± 3.1, ** p<0.01): 22.9 ± 2.5 ** μm
- Cell growth rate as compared with control group at which nothing had been added (control = 100%) ([3]; 11.54709375 to 369.507 μM (Working Examples 1 to 6), 24, 48 or 72 hours): increase in cell growth rate
- Concentration dependence of cell growth ([3]; 11.54709375 to 369.507 μM, peak at concentration of Working Example 5 (184.7535 μM)): induced cell growth in concentration-dependent fashion
- Amount of expression of the FGF-7 gene as compared with control group at which nothing had been added (FGF-7 gene; 1 μM and 10 μM (Working Examples 1 and 2)): increase in the amount of expression of the FGF-7 gene
- Amount of expression of the FGF-7 gene compared with 100 μM adenosine (Comparative Example 1) (FGF-7 gene; increasing the amount added): greater than that which was produced as a result of action of adenosine
